Here are results for two molecules from patent US11083735B2, “Methods for treating sleep disorders, sleep disturbances, and related symptoms using aminosterol compositions” (Enterin, Inc., priority 2017, dated 2021).

“And” between values parts separate entries of the source, which are not always exact repeats. Equal values may be shown once.

The subject of assay [1] is patients with PD. Put plainly: Phase 2 trial Stage 2: CNS symptoms (UPDRS, MMSE, BDI-II, PDHQ, hallucinations). In kind it is in vivo, human. The text has this:
(8) Beck Depression Inventory (BDI-II);
(9) Unified Parkinson's Disease Rating Scale (UPDRS), which consists of 42 items in four subscales (Part I=Non-Motor Aspects of Experiences of Daily Living (nM-EDL) (1.1 cognitive impairment, 1.2 hallucinations and psychosis, 1.3 depressed mood, Part II=Motor Aspects of Experiences of Daily Living (M-EDL), Part III=Motor Examination, and Part IV=Motor Complications;
(10) Mini Mental State Examination (MMSE);
(12) The University of Miami Parkinson's Disease Hallucinations Questionnaire (UM-PDHQ);
Exploratory end-points, in addition to constipation, included for example, (i) depression assessed using the Beck Depression Inventory (BDI-II) (Steer et al. 2000) and Unified Parkinson's Disease Rating Scale (UPDRS); (ii) cognition assessed using the Mini Mental State Examination (MMSE) (Palsteia et al. 2018), Unified Parkinson's Disease Rating Scale (UPDRS), and Trail Making Test (TMT); (iii) sleep and REM-behavior disorder (RBD) using a daily sleep diary, I-Button Temperature Assessment, a REM sleep behavior disorder (RBD) questionnaire (RBDQ) (Stiasny-Kolster et al. 2007), and the UPDRS; (iv) hallucinations assessed using the PD hallucinations questionnaire (PDHQ) (Papapetropoulos et al. 2008), the UPDRS, and direct questioning; (v) fatigue using the Parkinson's Disease Fatigue Scale (PFS-16) and the UPDRS; (vi) motor functions using the UPDRS; and (vii) non-motor functions using the UPDRS.
Assessments were made at baseline and at the end of the fixed dose and washout periods. Circadian system status was evaluated by continuously monitoring wrist skin temperature (Thermochron iButton DS1921H; Maxim, Dallas) following published procedures (Sarabia et al. 2008).
CNS Symptoms in Stage 2: An exploratory analysis was done with respect to the sleep data, the body temperature data, mood, fatigue, hallucinations, cognition and other motor and non-motor symptoms of PD. Continuous measurements within a subject were compared with a paired t-test and continuous measurements between subject groups were compared with a two-group t-test. Categorical data were compared with a chi-squared test or a Fisher's exact test if the expected cell counts are too small for a chi-squared test.
CNS symptoms: CNS symptoms were evaluated at baseline and at the end of the fixed dose period and the wash-out period (Table 16). Total UPDRS score was 64.4 at baseline, 60.6 at the end of the fixed dose period and 55.7 at the end of the wash-out period (p=0.002); similarly, the motor component of the UPDRS improved from 35.3 at baseline to 33.3 at the end of fixed dose to 30.2 at the end of wash-out (p=0.006). MMSE improved from 28.4 at baseline to 28.7 during treatment and to 29.3 during wash-out (p=0.0006). […] PDHQ improved from 1.3 at baseline to 1.8 during treatment and 0.9 during wash-out (p=0.03). Hallucinations were reported by 5 patients at baseline and delusions in 1 patient. […] The frequency of arm or leg thrashing reported in the sleep diary diminished progressively from 2.2 episodes/week at baseline to 0 at maximal dose. […] Unlike stool-related indices, the improvement in many CNS symptoms persisted during wash-out.

The subject of assay [2] is isolated colons. Put plainly: Isolated perfused colon, migrating muscular contractions (aged mouse; loperamide in young mouse). The text has this: Isolated colons were mounted in an apparatus that permits continuous perfusion through the lumen, and the monitoring of the velocity, frequency and pressure of migrating muscular contractions (MMCs). Similar to the experience in humans, aging in mice is associated with diminished colonic peristaltic activity.
In humans, opiates markedly diminish GI motility and suppress fluid secretion causing constipation. […] When loperamide is introduced into the lumen of a young mouse colonic peristalsis is inhibited. When squalamine is added in presence of continued loperamide perfusion, the dysmotility is overridden.

Assay [3] deals with colons from PD mice. Put plainly: Isolated colon motility, PD mice (human αSynuclein gene). Further details: species or system mouse. The text has this: Parkinson's disease is associated with varying degrees of constipation, typically beginning decades before diagnosis, and all too often has a profound negative impact on quality of life. It is believed that the ENS in PD is damaged earlier but by the same processes that damage the neurons of the CNS. In our clinical experience oral administration to several individuals with advanced Parkinson's disease corrected long standing constipation within days of initiation of treatment. We explored whether the human experience could be reproduced in the mouse. In the experiments illustrated below studies of colonic motility were conducted using organs from WT (1 yr old FVB/NJ) or PD mice, in which the murine αSynuclein gene has been excised and replaced by several copies of the human αSynuclein gene driven by the normal murine promoter.
The isolated colon from the PD strain presents a more sluggish peristaltic wave than that from the WT animal (black columns).

The subject of assay [4] is single IPAN of the myenteric plexus. Put plainly: IPAN electrophysiology, jejunum with luminal epithelium stripped. Also on record: species or system mouse. To be noted: squalamine applied directly onto the myenteric plexus. How it is done: Intrinsic primary afferent neurons (IPANs) are believed to be normally stimulated indirectly, through release of neurotransmitters from the epithelium. Since squalamine can be readily transported across an intact intestinal epithelial layer, and can enter a neuron, altering the surface potential of its plasma membrane, an experiment was designed to determine whether the effects of squalamine on the IPAN required the presence of the luminal epithelium.
Jejunum was prepared as described in the previous experiment, except the luminal epithelium was manually stripped off the organ using forceps. Squalamine was applied directly onto the myenteric plexus from the luminal surface. Electrophysiological studies were repeated to monitor the activity of a single IPAN within the area of the release of compound. Within 5 seconds the IPAN began a series of spontaneous discharges (FIG. 13A). […] Squalamine appears to be capable of communicating directly with the ENS, in contrast to most substances that communicate with the ENS only indirectly, via their effects on the epithelium.

Regarding `CC(C)[C@@H](CC[C@@H](C)[C@H]1CC[C@H]2[C@@H]3[C@H](O)C[C@H]4C[C@@H](NCCCNCCCCN)CC[C@]4(C)[C@H]3CC[C@]12C)OS(=O)(=O)O` (single isomer, unassigned; ent-01) [ENT-01], the “PDHQ, Fixed dose (Mean, SD)” value in assay [1] (Stage 2, end of fixed dose period, baseline 1.3 (2.99)) is recorded as 1.8. Moreover, the “BDI-II, Fixed dose (Mean, SD)” value in assay [1] (Stage 2, end of fixed dose period, baseline 10.9 (7.12)) was found to be 9.9. The “UPDRS Part 1 (NMS), Fixed dose (Mean, SD)” value in assay [1] (Stage 2, end of fixed dose period, baseline 11.6 (6.51)) came to 10.6. For the same molecule, the “UPDRS Part 2 (Daily living), Fixed dose (Mean, SD)” value in assay [1] (Stage 2, end of fixed dose period, baseline 14.9 (8.11)) turned out to be 14.7. Also, the “MMSE, Fixed dose (Mean, SD)” value in assay [1] (Stage 2, end of fixed dose period, baseline 28.4 (1.75)) stood at 28.7. Also, in assay [1] (Stage 2, end of fixed dose period, baseline 35.3 (14.35)), the “UPDRS Part 3 (Motor), Fixed dose (Mean, SD)” value was determined as 33.3. The “UPDRS Total, Fixed dose (Mean, SD)” value in assay [1] (Stage 2, end of fixed dose period, baseline 64.4 (23.72)) was determined as 60.6. The “PDHQ, Wash-out (Mean, SD)” value in assay [1] (Stage 2, end of wash-out period, baseline 1.3 (2.99)) is 0.9 (2.33). In addition, the “BDI-II, Wash-out (Mean, SD)” value in assay [1] (Stage 2, end of wash-out period, baseline 10.9 (7.12)) is reported as 8.7 (5.19). Besides, the “UPDRS Part 1 (NMS), Wash-out (Mean, SD)” value in assay [1] (Stage 2, end of wash-out period, baseline 11.6 (6.51)) was 9.5 (5.27). Further, in assay [1] (Stage 2, end of wash-out period, baseline 14.9 (8.11)), the “UPDRS Part 2 (Daily living), Wash-out (Mean, SD)” value is 14.1 (8.21). In addition, the “MMSE, Wash-out (Mean, SD)” value in assay [1] (Stage 2, end of wash-out period, baseline 28.4 (1.75)) is 29.3 (1.06). For the same molecule, in assay [1] (Stage 2, end of wash-out period, baseline 35.3 (14.35)), the “UPDRS Part 3 (Motor), Wash-out (Mean, SD)” value was 30.2 (13.23). The “UPDRS Total, Wash-out (Mean, SD)” value in assay [1] (Stage 2, end of wash-out period, baseline 64.4 (23.72)) is 55.7 (23.69). Also, the “hallucinations in one patient” value in assay [1] (at 100 mg (prokinetic dose of this patient 175 mg)) is “disappeared”. Moreover, the BDI-II in assay [1] (at wash-out) is listed as 8.7; in assay [1] (during treatment, baseline 10.9), 9.9. Besides, the “patients in whom hallucinations and delusions improved or disappeared” value in assay [1] (during treatment) is 5 of 6. Further, the PDHQ in assay [1] (during treatment, baseline 1.3) is given as 1.8; in assay [1] (during wash-out), 0.9. The MMSE in assay [1] (during treatment, baseline 28.4) is listed as 28.7; in assay [1] (during wash-out), 29.3. Further, the “motor component of the UPDRS” value came to 33.3 in assay [1] (end of fixed dose, baseline 35.3) and 30.2 in assay [1] (end of wash-out). Also, the “Total UPDRS score” value in assay [1] (end of the fixed dose period, baseline 64.4) came out at 60.6; in assay [1] (end of the wash-out period) it was 55.7. Also, the “time free of hallucinations following cessation of dosing” value in assay [1] (one patient) came out at 1 month. Besides, in assay [1] (single patients), the “time without return of hallucinations/delusions following discontinuation” value was 4 weeks and 2 weeks.

Regarding `CC(C)[C@@H](CC[C@@H](C)[C@H]1CC[C@H]2[C@@H]3[C@H](O)C[C@H]4C[C@@H](NCCCNCCCCN)CC[C@]4(C)[C@H]3CC[C@]12C)OS(=O)(=O)O` [squalamine], the colonic peristalsis result in assay [2] (squalamine into the colonic lumen of the aged mouse) is “dramatic stimulation of peristalsis”. Besides, the “dysmotility caused by loperamide” value in assay [2] (young mouse colon, squalamine added in presence of continued loperamide perfusion) is “overridden”. In addition, in assay [3] (FIG. 14B), the “speed of the colonic peristaltic wave” value is “normalizing the PD colon to that of the unstimulated WT mouse”. In addition, the “force of peristaltic contractions” value in assay [3] (squalamine added to lumen, FIG. 14A) is given as “increases the force of contractions”. In addition, in assay [4], the “time to onset of spontaneous discharges of the IPAN” value is not above 5 s.
